In patent publication US20150299796A1, “PREDICTION OF TREATMENT RESPONSE TO JAK/STAT INHIBITOR” (priority 2012, published 2015):

Legend:
[1] = test system: pSTAT5; test: Phospho-STAT5 western blot in hematologic tumor cell lines after treatment; type: cell-based; details: 0.2 μM or 1 μM, 4 hr and 24 hr
Protocol: (§1) […] hematologic tumor cell lines (5 positive for pSTAT5 (AML-193, Hel 92.1.7, Set2, TF-1 and UKE-1) and 4 negative for pSTAT5 (RPM18226, U937, Relt and PL-21) were treated with (R)-3-cyclopentyl-3-[4-(7H-pyrrolo[2,3-d]pyrimidin-4-yl)-1H-pyrazol-1-yl]propanenitrilem, 0.2 μM or 1 μM, and samples were collected at 4 hr and 24 hr after treatment. Phospho-STAT5 was examined by western blot analysis, and the expression of the four signature genes was determined by qPCR. The RNA expression level (ΔCt) of each individual gene in the signature was determined by subtracting the average Ct for the signature gene from the average Ct of the two housekeeper genes (GUSB and TBP). For the normalized relative expression levels the DMSO control treatment ΔCt were set to one and all other treatments the gene Ct values are relative to this value.

[2] = test system: four signature genes (PIM1, CISH, SOCS2, ID1); test: qPCR expression of the four signature genes in hematologic tumor cell lines after treatment; type: cell-based; details: 0.2 μM or 1 μM, 4 hr and 24 hr
Protocol: as §1

[3] = test system: UKE-1 tumor xenograft; test: UKE-1 tumor xenograft study, modulation of 4-gene signature in tumor; type: in vivo, female NOD.SCID mice; details: single dose P.O. 60 mg/kg; tumor samples at 4 and 24 hours (FIG. 6)
Protocol: The modulation of gene signature by (R)-3-cyclopentyl-3-[4-(7H-pyrrolo[2,3-d]pyrimidin-4-yl)-1H-pyrazol-1-yl]propanenitrile (ruxolitinib) was further examined in vivo. UKE-1 cells were implanted in female NOD.SCID mice (Harlan) at 1x10e7 cells/mouse. Single dose of (R)-3-cyclopentyl-3-[4-(7H-pyrrolo[2,3-d]pyrimidin-4-yl)-1H-pyrazol-1-yl]propanenitrile was administered P.O. at 60 mg/kg when tumors reached ˜500 mg. Tumor samples were collected at 4 and 24 hours after treatment. The modulation of pSTAT5 in tumor lysate was examined by Western.

[4] = pSTAT5 negative cell lines (RPMI 8226 in FIG. 2A)
[5] = pSTAT5 positive cell lines (TF-1 in FIG. 2B)

N#CC[C@H](C1CCCC1)n1cc(-c2ncnc3[nH]ccc23)cn1 [(R)-3-cyclopentyl-3-[4-(7H-pyrrolo[2,3-d]pyrimidin-4-yl)-1H-pyrazol-1-yl]propanenitrile]
pSTAT5 modulation [1, 4]: no clear effect
pSTAT5 modulation [1, 5]: down-modulated pSTAT5
changes in signature gene expression [2, 4]: no clear effect
expression of the signature genes [2, 5]: corresponding reduction of the expression of the signature genes
modulation of 4-gene signature in tumor [3]: consistent to that observed in vitro
